According to ChEMBL document CHEMBL3885881, “DrugMatrix”:

Species: Rattus norvegicus
Test: DrugMatrix - Regimen: Daily Repeat
Assay type: toxicity, organism-based, Sprague-Dawley
Parameters: regimen Daily Repeat, gender Male, age 6-8 weeks
Conditions: in vivo, sc, route subcutaneous, […]; for ABSOLUTE BASOPHIL / ABSOLUTE EOSINOPHIL / ABSOLUTE LYMPHOCYTE / ABSOLUTE MONOCYTE / ABSOLUTE SEGMENTED NEUTROPHIL / BASOPHIL / EOSINOPHIL / ERYTHROCYTE COUNT / HEMATOCRIT / HEMOGLOBIN / LEUKOCYTE COUNT / LYMPHOCYTE / MEAN CORPUSCULAR HEMOGLOBIN / MEAN CORPUSCULAR HEMOGLOBIN CONCENTRATION / MEAN CORPUSCULAR VOLUME / MONOCYTE / NEUTROPHIL / NUCLEATED RED BLOOD CELLS / PLATELET COUNT: tissue Blood; for ALANINE AMINOTRANSFERASE / ALBUMIN / ALKALINE PHOSPHATASE / ASPARTATE AMINOTRANSFERASE / BLOOD UREA NITROGEN / CARBON DIOXIDE / CHLORIDE / CHOLESTEROL / CREATINE PHOSPHOKINASE / CREATININE / GLUCOSE / LACTATE DEHYDROGENASE / LIPASE / PHOSPHORUS / POTASSIUM / SODIUM / TOTAL BILIRUBIN / TOTAL PROTEIN / URIC ACID: tissue Plasma
[1] = 0 mg/kg, 72 h, dose level Control, time 3 day
[2] = 0 mg/kg, 120 h, dose level Control, time 5 day
[3] = 56 mg/kg, 72 h, dose level High, time 3 day

Question: With `C[C@]12CCC(=O)C=C1CC[C@@H]1[C@@H]2[C@@H](O)C[C@@]2(C)[C@H]1CC[C@]2(O)C(=O)CO` [HYDROCORTISONE] as the compound, how does the “ABSOLUTE BASOPHIL” value [1] read?
Answer: 0 CELLS/uL

Question: What about the “ABSOLUTE EOSINOPHIL” value [1] of the same compound?
Answer: 0 CELLS/uL

Question: And the “ABSOLUTE LYMPHOCYTE” value [1]?
Answer: 10887 CELLS/uL

Question: And the “ABSOLUTE MONOCYTE” value [1]?
Answer: 56 CELLS/uL

Question: What about the “ABSOLUTE SEGMENTED NEUTROPHIL” value [1] of the same compound?
Answer: 1057 CELLS/uL

Question: And the BASOPHIL [1]?
Answer: 0%

Question: What about the EOSINOPHIL [1] of the same compound?
Answer: 0%

Question: What about the “ERYTHROCYTE COUNT” value [1] of the same compound?
Answer: 5.31 x10E6/uL

Question: What about the HEMATOCRIT [1] of the same compound?
Answer: 33.78%

Question: And the HEMOGLOBIN [1]?
Answer: 13.4 G/DL

Question: And the “LEUKOCYTE COUNT” value [1]?
Answer: 12 x10E3/uL

Question: And the LYMPHOCYTE [1]?
Answer: 91.17%

Question: What about the “MEAN CORPUSCULAR HEMOGLOBIN” value [1] of the same compound?
Answer: 25.25 pg

Question: What about the “MEAN CORPUSCULAR HEMOGLOBIN CONCENTRATION” value [1] of the same compound?
Answer: 39.65 G/DL

Question: What about the “MEAN CORPUSCULAR VOLUME” value [1] of the same compound?
Answer: 63.65 fL

Question: And the MONOCYTE [1]?
Answer: 0.5%

Question: And the NEUTROPHIL [1]?
Answer: 8.33%

Question: What about the “NUCLEATED RED BLOOD CELLS” value [1] of the same compound?
Answer: 0 /100WBC

Question: And the “PLATELET COUNT” value [1]?
Answer: 1142 x10E3/uL

Question: What about the “ALANINE AMINOTRANSFERASE” value [1] of the same compound?
Answer: 57.17 u/L

Question: What about the ALBUMIN [1] of the same compound?
Answer: 4.28 G/DL

Question: And the “ALKALINE PHOSPHATASE” value [1]?
Answer: 425.83 u/L

Question: What about the “ASPARTATE AMINOTRANSFERASE” value [1] of the same compound?
Answer: 93.83 u/L

Question: And the “BLOOD UREA NITROGEN” value [1]?
Answer: 14.17 mg/dL

Question: And the “CARBON DIOXIDE” value [1]?
Answer: 33.5 mmol/L

Question: What about the CHLORIDE [1] of the same compound?
Answer: 100 MEQ/L

Question: And the CHOLESTEROL [1]?
Answer: 70.33 mg/dL

Question: What about the “CREATINE PHOSPHOKINASE” value [1] of the same compound?
Answer: 438.67 u/L

Question: What about the CREATININE [1] of the same compound?
Answer: 0.19 mg/dL

Question: And the GLUCOSE [1]?
Answer: 138.5 mg/dL

Question: And the “LACTATE DEHYDROGENASE” value [1]?
Answer: 190.17 u/L

Question: What about the LIPASE [1] of the same compound?
Answer: 9.83 u/L

Question: What about the PHOSPHORUS [1] of the same compound?
Answer: 11.05 mg/dL

Question: What about the POTASSIUM [1] of the same compound?
Answer: 6.59 MEQ/L

Question: And the SODIUM [1]?
Answer: 143.58 MEQ/L

Question: And the “TOTAL BILIRUBIN” value [1]?
Answer: 0.22 mg/dL

Question: What about the “TOTAL PROTEIN” value [1] of the same compound?
Answer: 6.15 G/DL

Question: What about the “URIC ACID” value [1] of the same compound?
Answer: 1.3 mg/dL

Question: What about the “ABSOLUTE BASOPHIL” value [2] of the same compound?
Answer: 0 CELLS/uL

Question: What about the “ABSOLUTE EOSINOPHIL” value [2] of the same compound?
Answer: 91.17 CELLS/uL

Question: What about the “ABSOLUTE LYMPHOCYTE” value [2] of the same compound?
Answer: 11847.67 CELLS/uL

Question: And the “ABSOLUTE MONOCYTE” value [2]?
Answer: 172.83 CELLS/uL

Question: What about the “ABSOLUTE SEGMENTED NEUTROPHIL” value [2] of the same compound?
Answer: 1105 CELLS/uL

Question: What about the BASOPHIL [2] of the same compound?
Answer: 0%

Question: What about the EOSINOPHIL [2] of the same compound?
Answer: 0.67%

Question: And the “ERYTHROCYTE COUNT” value [2]?
Answer: 5.35 x10E6/uL

Question: And the HEMATOCRIT [2]?
Answer: 33.65%

Question: And the HEMOGLOBIN [2]?
Answer: 13.42 G/DL

Question: And the “LEUKOCYTE COUNT” value [2]?
Answer: 13.22 x10E3/uL

Question: What about the LYMPHOCYTE [2] of the same compound?
Answer: 89.83%

Question: And the “MEAN CORPUSCULAR HEMOGLOBIN” value [2]?
Answer: 25.12 pg

Question: What about the “MEAN CORPUSCULAR HEMOGLOBIN CONCENTRATION” value [2] of the same compound?
Answer: 39.9 G/DL

Question: What about the “MEAN CORPUSCULAR VOLUME” value [2] of the same compound?
Answer: 63 fL

Question: And the MONOCYTE [2]?
Answer: 1.33%

Question: And the NEUTROPHIL [2]?
Answer: 8.17%

Question: And the “NUCLEATED RED BLOOD CELLS” value [2]?
Answer: 0 /100WBC

Question: What about the “PLATELET COUNT” value [2] of the same compound?
Answer: 1347.83 x10E3/uL

Question: And the “ALANINE AMINOTRANSFERASE” value [2]?
Answer: 50 u/L

Question: And the ALBUMIN [2]?
Answer: 4.1 G/DL

Question: And the “ALKALINE PHOSPHATASE” value [2]?
Answer: 329.17 u/L

Question: What about the “ASPARTATE AMINOTRANSFERASE” value [2] of the same compound?
Answer: 77.17 u/L

Question: And the “BLOOD UREA NITROGEN” value [2]?
Answer: 16.83 mg/dL

Question: And the “CARBON DIOXIDE” value [2]?
Answer: 34.83 mmol/L

Question: What about the CHLORIDE [2] of the same compound?
Answer: 99.83 MEQ/L

Question: And the CHOLESTEROL [2]?
Answer: 75.67 mg/dL

Question: What about the “CREATINE PHOSPHOKINASE” value [2] of the same compound?
Answer: 295.83 u/L

Question: And the CREATININE [2]?
Answer: 0.18 mg/dL

Question: What about the GLUCOSE [2] of the same compound?
Answer: 156.33 mg/dL

Question: And the “LACTATE DEHYDROGENASE” value [2]?
Answer: 166.83 u/L

Question: What about the LIPASE [2] of the same compound?
Answer: 9.83 u/L

Question: What about the PHOSPHORUS [2] of the same compound?
Answer: 12.18 mg/dL

Question: What about the POTASSIUM [2] of the same compound?
Answer: 6.69 MEQ/L

Question: What about the SODIUM [2] of the same compound?
Answer: 143.97 MEQ/L

Question: What about the “TOTAL BILIRUBIN” value [2] of the same compound?
Answer: 0.22 mg/dL

Question: What about the “TOTAL PROTEIN” value [2] of the same compound?
Answer: 6.05 G/DL

Question: What about the “URIC ACID” value [2] of the same compound?
Answer: 1.6 mg/dL

Question: And the “ABSOLUTE BASOPHIL” value [3]?
Answer: 0 CELLS/uL

Question: What about the “ABSOLUTE EOSINOPHIL” value [3] of the same compound?
Answer: 0 CELLS/uL

Question: What about the “ABSOLUTE LYMPHOCYTE” value [3] of the same compound?
Answer: 1706 CELLS/uL

Question: What about the “ABSOLUTE MONOCYTE” value [3] of the same compound?
Answer: 103.33 CELLS/uL

Question: And the “ABSOLUTE SEGMENTED NEUTROPHIL” value [3]?
Answer: 3357.33 CELLS/uL

Question: What about the BASOPHIL [3] of the same compound?
Answer: 0%

Question: And the EOSINOPHIL [3]?
Answer: 0%

Question: And the “ERYTHROCYTE COUNT” value [3]?
Answer: 5.79 x10E6/uL

Question: What about the HEMATOCRIT [3] of the same compound?
Answer: 37.97%

Question: And the HEMOGLOBIN [3]?
Answer: 14.73 G/DL

Question: And the “LEUKOCYTE COUNT” value [3]?
Answer: 5.17 x10E3/uL

Question: What about the LYMPHOCYTE [3] of the same compound?
Answer: 33.33%

Question: And the “MEAN CORPUSCULAR HEMOGLOBIN” value [3]?
Answer: 25.47 pg

Question: And the “MEAN CORPUSCULAR HEMOGLOBIN CONCENTRATION” value [3]?
Answer: 38.87 G/DL

Question: And the “MEAN CORPUSCULAR VOLUME” value [3]?
Answer: 65.57 fL

Question: What about the MONOCYTE [3] of the same compound?
Answer: 2%

Question: What about the NEUTROPHIL [3] of the same compound?
Answer: 64.67%

Question: And the “NUCLEATED RED BLOOD CELLS” value [3]?
Answer: 0.33 /100WBC

Question: What about the “PLATELET COUNT” value [3] of the same compound?
Answer: 1157.67 x10E3/uL

Question: And the “ALANINE AMINOTRANSFERASE” value [3]?
Answer: 124.33 u/L

Question: What about the ALBUMIN [3] of the same compound?
Answer: 5.07 G/DL

Question: And the “ALKALINE PHOSPHATASE” value [3]?
Answer: 509.67 u/L

Question: And the “ASPARTATE AMINOTRANSFERASE” value [3]?
Answer: 177.33 u/L

Question: And the “BLOOD UREA NITROGEN” value [3]?
Answer: 13.67 mg/dL

Question: What about the “CARBON DIOXIDE” value [3] of the same compound?
Answer: 29 mmol/L

Question: And the CHLORIDE [3]?
Answer: 99 MEQ/L

Question: And the CHOLESTEROL [3]?
Answer: 119.33 mg/dL

Question: And the “CREATINE PHOSPHOKINASE” value [3]?
Answer: 250.33 u/L

Question: And the CREATININE [3]?
Answer: 0.17 mg/dL

Question: What about the GLUCOSE [3] of the same compound?
Answer: 360 mg/dL

Question: What about the “LACTATE DEHYDROGENASE” value [3] of the same compound?
Answer: 443.67 u/L

Question: And the LIPASE [3]?
Answer: 10.67 u/L

Question: And the PHOSPHORUS [3]?
Answer: 10.63 mg/dL

Question: And the POTASSIUM [3]?
Answer: 5.68 MEQ/L

Question: What about the SODIUM [3] of the same compound?
Answer: 144.93 MEQ/L

Question: What about the “TOTAL BILIRUBIN” value [3] of the same compound?
Answer: 0.17 mg/dL

Question: What about the “TOTAL PROTEIN” value [3] of the same compound?
Answer: 6.97 G/DL

Question: And the “URIC ACID” value [3]?
Answer: 1.43 mg/dL
